The values below come from patent US20090238852A1, “METHODS FOR CONTROLLING INTRACELLULAR CALCIUM LEVELS ASSOCIATED WITH AN ISCHEMIC EVENT” (University of Utah Research Foundation, priority 2008, published 2009).

For test [1], the system named is rabbit ventricular myocytes. Kind of test: [Ca^++]i during paced aerobic metabolism (PH) with the Na^+ channel opener ATX. Format: cell-based. The following applies: n = 7. The procedure:
In these studies, intracellular calcium concentration [Ca^++]i was measured by flow cytometry. Measurement of isolated mouse and rabbit ventricular myocyte [Ca^2+]i and [Na^+]i by flow cytometry has been described (Zhang et al., J. Cardiovasc. Pharmacol. 51: 443-449 (2008); Li et al., J. Mol. Cell. Cardiol. 33: 2145-2155 (2001)). [Ca^++]i was measured with the Ca^++ sensitive fluorescent probe, Fluo 3-AM (Molecular Probes, Eugene, Oreg.), using a FACScan (Becton-Dickinson, MA). The cells were exposed to 4 μmol/L Fluo-3 AM for 30 min at 37° C. The cells were then separated into aliquots. After 40 min of wash, the cells were exposed to paced metabolic ischemia (MI) for 45 min at 37° C. Metabolic ischemia was accomplished by incubating cells in a glucose-free MKRBB solution (pH 7.40) containing 2 mmol/L sodium cyanide (NaCN) to impair mitochondrial and glycolytic generation of ATP. To reproduce the situation in the beating ischemic heart, during the period of metabolic ischemia, myocytes were placed in a 5-well chamber with equal volumes of myocyte suspensions from the same heart dissociation placed in each well. The chamber was water bathed to maintain temperature at 37° C. and bubbled with 5% CO2 in air to keep myocytes in suspension. […] Approximately 2×10^3 myocytes were analyzed to calculate average emission fluorescence intensity in each sample. […] Only those cells with low fluorescence intensity at 670 nm (PI-negative cells or viable cells) were included in the comparative analysis of [Ca^++]i. The sample [Ca^2+]i values were calculated by Mn^2+ quenching (Sugishita et al, 2001) and [Na^+]i values by comparison with a standard curve of varied [Na^+]i versus Na Green fluorescence. […] Results were expressed as means±SEM. […]
To further examine the role of ODSH as a Na^+ inhibitor, additional experiments were performed in which the Na^+ channel opener amenone toxin II (ATX) was added to medium in a final concentration of 20 nmol/L to open the cardiac myocyte membrane Na^+ channel. […] Intracellular calcium concentration [Ca^++]i was monitored as earlier. […]

For test [2], the system named is activated clotting time (ACT). Nature of the test: Porcine ischemia/reperfusion model: activated clotting time (ACT). Format: in vivo, pig. Particulars: for ACT group difference versus control: 90 and 180 min after. From the text: Arterial access was achieved via bilateral femoral artery cut-downs for the insertion of 8F sheaths. Central venous and carotid access was achieved via a neck incision to expose the external jugular vein and common carotid artery. Animals were then anticoagulated with 50 U/kg of unfractionated heparin to maintain an activated clotting time (ACT) between 250-350 seconds, prior to ischemia. A 7-8 Fr pigtail catheter was placed in the left ventricular cavity to measure pressure and for injection of […] microspheres. Angiography was performed to define coronary anatomy and measure the diameter of the left anterior descending coronary artery (LAD) at the point of intended balloon occlusion. A coronary sinus catheter was placed via the external jugular vein under fluoroscopic guidance for coronary venous sampling. Baseline cardiodynamic and hemodynamic data were measured using a solid state transducer-tipped catheter in the left ventricle (Millar Instruments, Houston, Tex.) to measure left ventricular pressure, and a fluid-filled transducer connected to the side port of the femoral artery sheath to measure peripheral arterial pressure. Approximately 3-4 million neutron-activated microspheres (BioPhysics Assay Laboratory, Inc, Worcester, Ma) (15 μm) were delivered through a pig-tail catheter into the left ventricle over a 30 second period, to quantify regional myocardial blood flow (RMBF). Simultaneously with injection, a reference sample was withdrawn at a rate of 7 cc/min from the femoral artery sheath, for 90 seconds during and after injection of microspheres. A contrast ventriculogram (60° right anterior oblique) was obtained to assess global and regional myocardial function at baseline. […] Balloon occlusion time was 75 minutes with coronary occlusion confirmed by contrast angiography, ST segment changes on electrocardiography, and quantitatively confirmed by microspheres delivered at the end of ischemia, as described above. […] At the end of 180 minutes of reperfusion, animals were euthanized with an IV injection of pentobarbital sodium (100 mg/kg) and the heart was excised to quantify the area at risk, infarct size, regional myocardial blood flow, and myeloperoxidase activity. Hemodynamic data (left ventricular and arterial blood pressure) and derived variables were recorded continuously using 10× and Datanalyst software (EMKA Technologies, Falls Church, Va.).
Blood anticoagulation was measured by following the ACT, determined using the Hemochron whole blood coagulating system (Hemochron, Edison, N.J.) and measured 10 minutes after delivery of 50 U/kg of unfractionated heparin after the insertion of arterial sheaths. […]

With 2-O, 3-O desulfated heparin [ODSH], the “[Ca^++]i” value in test [1] (PH + ODSH 100 μg/mL + ATX 20 nmol/L, PH + ATX 529.1 ± 29.3) is on record as 412.9 ± 26.7^+ nM; in test [1] (PH + ODSH 100 μg/mL, no ATX, PH alone 406.8 ± 15.9), 366.4 ± 21.1 nM. Further, the “elevation above control in ACT” value in test [2] (15 mg/kg dose group) is on record as “approximately 200 seconds”. Further, the “ACT group difference versus control” value in test [2] (ODS 5 mg/kg, end ischemia) is recorded as “no significant differences in ACT”; in test [2] (ODS 15 mg/kg, end ischemia), “no significant differences in ACT”. Further, the “ACT compared to the other groups” value in test [2] (ODS 45 mg/kg, end ischemia, 90 and 180 min after end of ischemia, on 50 U/kg UFH background) is recorded as “significantly higher”.
